Patent US20250319183A1, “COMPOSITIONS AND METHODS FOR THE TREATMENT OF CANCER” (Beth Israel Deaconess Medical Center, priority 2021, published 2025)
Square brackets hold non-standard residues; d marks the D form. Peptide text beside a SMILES is read from it.

Key:
THP-1 = test: TCRL antibody binding (PR1-HLA-A2 presentation) on THP-1, flow cytometry; type: cell-based; conditions: four doses of 1 μM added twice daily for two days, then two days culture
Protocol: To determine the effect hypomethylation agents (HMAa) have on tumor antigen presentation, AML patient-derived tumor cells were treated for two days with four doses of 1 μM SGI-110, an HMA, added twice daily and then cultured for additional two days. TAP2 expression was assessed using immunohistochemical staining with and without treatment with SGI-110 (FIG. 3A). The HLA-A2 expressing AML cell line, THP-1, was treated for two days with four doses of 1 μM SGI-110 added twice daily and then cultured for an additional two days. The cells were then analyzed for binding capacity of a unique T cell receptor-like (TCRL) antibody. The TCRL antibody is a TCR mimic that recognizes the PR1-HLA-A2-MHC complex on the surface of leukemic cells where PR-1 is a known leukemic antigen. […] An HLA-A2 negative cell line U937 (histiocytic lymphoma) was used as a negative control.

[1] = tested on: multiple myeloma (MM) and AML cell lines; conditions: single agent; cited from earlier work
AML cell = conditions: in combination with decitabine; cited from earlier work
[2] = tested on: chronic lymphocytic leukemia (CLL) and AML cells; conditions: cited from earlier work

**Q.** For `Nc1ncn([C@H]2C[C@H](OP(=O)(O)OCC3O[C@@H](n4cnc5c(=O)[nH]c(N)nc54)CC3O)[C@@H](CO)O2)c(=O)n1` (stereo in doubt) [SGI-110, 2′-deoxy-5-aza-cytidylyl-(3′->5′)-2′-deoxy-guanosine], which “tumor antigen presentation, binding of TCRL antibody” value (THP-1) is on record?
**A.** increased binding of TCRL antibody

**Q.** For `CN(C)CC[C@H](CSc1ccccc1)Nc1ccc(S(=O)(=O)NC(=O)c2ccc(N3CCN(Cc4ccccc4-c4ccc(Cl)cc4)CC3)cc2)cc1[N+](=O)[O-]` [ABT-737, 4-[4-[[2-(4-chlorophenyl)phenyl]methyl]piperazin-1-yl]-N-[4-[[(2R)-4-(dimethylamino)-1-phenylsulfanylbutan-2-yl]amino]-3-nitrophenyl]sulfonylbenzamide], which “activity against cell lines” value [1] is on record?
**A.** single agent activity

**Q.** With `N=C(N)NCCC[C@@H](N)C(=O)N[C@H](CCCNC(=N)N)C(=O)N[C@H](CCCNC(=N)N)C(=O)N[C@H](CCCNC(=N)N)C(=O)N[C@H](CCCNC(=N)N)C(=O)N[C@H](CCCNC(=N)N)C(=O)N[C@H](CCCNC(=N)N)C(=O)N[C@H](CCCNC(=N)N)C(=O)N[C@H](CCCNC(=N)N)C(=O)N[C@H](CS)C(=O)N[C@H](CCC(N)=O)C(=O)N[C@H](CS)C(=O)N[C@H](CCCNC(=N)N)C(=O)N[C@H](CCCNC(=N)N)C(=O)N[C@H](CCCCN)C(=O)N[C@H](CC(N)=O)C(=O)O.O=C(O)C(F)(F)F` [GO-203, D-arginyl-D-arginyl-D-arginyl-D-arginyl-D-arginyl-D-arginyl-D-arginyl-D-arginyl-D-arginyl-D-cysteinyl-D-glutaminyl-D-cysteinyl-D-arginyl-D-arginyl-D-lysyl-D-asparagine trifluoroacetic acid] (H-[dR][dR][dR][dR][dR][dR][dR][dR][dR][dC][dQ][dC][dR][dR][dK][dN]-OH) as the compound, how does the “DNMT1 levels and AML cell survival” value (AML cell) read?
**A.** effectively reduces DNMT1 levels and AML cell survival

**Q.** With `CC1(C)CCC(c2ccc(Cl)cc2)=C(CN2CCN(c3ccc(C(=O)NS(=O)(=O)c4ccc(N[C@H](CCN5CCOCC5)CSc5ccccc5)c(S(=O)(=O)C(F)(F)F)c4)cc3)CC2)C1` [navitoclax, 4-[4-[[2-(4-chlorophenyl)-5,5-dimethylcyclohexen-1-yl]methyl]piperazin-1-yl]-N-[4-[[(2R)-4-morpholin-4-yl-1-phenylsulfanylbutan-2-yl]amino]-3-(trifluoromethylsulfonyl)phenyl]sulfonylbenzamide] as the compound, how does the anti-cancer activity [2] read?
**A.** anti-cancer activity
